# Legend:
# [1] = test system: Haemophilus influenzae (Isolate ID ATCC 49247); test: Antibacterial activity, MIC, H. influenzae; type: cell-based; conditions: Gram negative strain, broth microdilution or agar dilution; for MIC: Haemophilus influenzae, ATCC49247
# Procedure: (§1) Bacterial Assay: Determination of Antibacterial Activity
# (§2) Compounds of the invention were tested for antimicrobial activity by susceptibility testing in liquid or on solid media. MICs for compounds against each strain were determined by the broth microdilution or agar dilution method according to the guidelines of the Clinical Laboratories and Standards Institute, formerly the National Committee for Clinical Laboratory Standards (Clinical Laboratories and Standards Institute. Methods for Dilution Antimicrobial Susceptibility Tests for Bacteria That Grow Aerobically; Approved Standard—Seventh Edition. Document M7-A7. CLSI, Wayne, Pa., 2006; Clinical Laboratories and Standards Institute. The gram positive bacterial strains tested include S. aureus (Staphylococcus aureus (Isolate ID ATCC 29213)), E. faecalis (Enterococcus faecalis (Isolate ID ATCC 29212)) and S. pyogenes (Streptococcus pyogenes (Isolate ID ATCC 51339)). The gram negative bacterial strains tested include H. influenzae (Haemophilus influenzae (Isolate ID ATCC 49247))
# [2] = test system: Staphylococcus aureus (Isolate ID ATCC 29213); test: Antibacterial activity, MIC, S. aureus; type: cell-based; conditions: broth microdilution or agar dilution; for MIC: Staphylococcus aureus, ATCC29213, Gram positive strain
# Procedure: as §1, §2
# [3] = physchem; conditions: for solubility at 24 h: kinetic from dmso stock; for Solubility (pH 7.4): 24 h
# Procedure: Turbimetric Assay: Determination of Solubility
# The solubility of the compounds was measured using a turbidimetric method. A series of doubling dilutions of compounds were prepared in neat dimethyl sulfoxide (DMSO). 5 μl samples were diluted twenty-fold into 95 μl volumes of 100 mM citrate buffer (pH 4), phosphate buffered saline (PBS, pH 7.4) or carbonate-bicarbonate buffer (pH 9) in microtitre assay plates and allowed to reach equilibrium at room temperature for 24 hours. The absorbance within each well of the plate was read spectrophotometrically at a wavelength of 620 nm. A precipitate forms when the maximum aqueous solubility level is reached. The value quoted is the highest concentration where the compound was in solution i.e. where no measurable precipitate was present. […] ND=not determined
# [4] = test system: Streptococcus pyogenes (Isolate ID ATCC 51339); test: Antibacterial activity, MIC, S. pyogenes; type: cell-based; conditions: broth microdilution or agar dilution; for MIC: Streptococcus pyogenes, ATCC51339, Gram positive strain
# Procedure: as §1, §2
# [5] = pH 7.4, aqueous buffer, Max Solubility
# [6] = pH 7.4, aqueous buffer, Solubility (pH 7.4)
# [7] = pH 7.4, aqueous buffer, Solubility Range
# [8] = pH 7.4, aqueous buffer, Solubility Range (maximum solubility)
# [9] = pH 9, aqueous buffer, Max Solubility
# [10] = pH 9, aqueous buffer, Solubility Range (maximum solubility)
MIC [1] [µg/mL],MIC [2] [µg/mL],"solubility at 24 h [3, 5] [µg/mL]","solubility at 24 h [3, 6] [µg/mL]","solubility at 24 h [3, 7] [µg/mL]","solubility at 24 h [3, 8] [µg/mL]",MIC [4] [µg/mL],"solubility at 24 h [3, 9] [µg/mL]","solubility at 24 h [3, 10] [µg/mL]",Antibacterial Activity (MIC) H. influenzae (ATCC 49247) [1],Antibacterial Activity (MIC) S. aureus (ATCC 29213) ([2]; Gram positive strain),Solubility (pH 7.4) [3],Antibacterial Activity (MIC) S. pyogenes (ATCC 51339) ([4]; Gram positive strain),Structure (SMILES)
1 to 16,1 to 16,≥ 800,≥ 800,> 800,> 800,0.25 to 1,,,,,,,"CCNC(=O)Nc1nc2cc(-c3cnc(N4CCC(CC)(C(=O)O)CC4)nc3)cc(C=O)c2s1 [Compound 199, 4-ethyl-1-[5-[2-(ethylcarbamoylamino)-7-formyl-1,3-benzothiazol-5-yl]pyrimidin-2-yl]piperidine-4-carboxylic acid]"
0.25 to 1,1 to 16,≥ 800,≥ 800,> 800,> 800,1 to 16,,,,,,,"CCNC(=O)Nc1nc2cc(-c3cnc(N4CCC(C)(C(=O)O)CC4)nc3)cc(COC)c2s1 [Compound 202, 1-[5-[2-(Ethylcarbamoylamino)-7-(methoxymethyl)-1,3-benzothiazol-5-yl]pyrimidin-2-yl]-4-methyl-piperidine-4-carboxylic acid]"
0.25 to 1,≤ 0.25,≥ 800,≥ 800,> 800,> 800,≤ 0.25,,,,,,,"CCNC(=O)Nc1nc2cc(-c3cnc(N4CCC(CC)(C(=O)O)CC4)nc3)cc(/C=N\OC)c2s1 [Compound 225, 4-Ethyl-1-[5-[2-(ethylcarbamoylamino)-7-[(Z)-methoxyiminomethyl]-1,3-benzothiazol-5-yl]pyrimidin-2-yl]piperidine-4-carboxylic acid]"
1 to 16,1 to 16,400,400,400 to 800,400 to 800,1 to 16,,,,,,,"CCNC(=O)Nc1nc2cc(-c3cnc(N4CCC(C)(C(=O)O)CC4)nc3)cc(-n3cccn3)n2n1 [Compound 227, 1-(5-{2-[(ethylcarbamoyl)amino]-5-(1H-pyrazol-1-yl)[1,2,4]triazolo[1,5-a]pyridin-7-yl}pyrimidin-2-yl)-4-methylpiperidine-4-carboxylic acid]"
1 to 16,0.25 to 1,≥ 800,≥ 800,> 800,> 800,≤ 0.25,,,,,,,CCNC(=O)Nc1nc2cc(-c3cnc(N4CCC(CC)(C(=O)O)C4)nc3)cc(-c3ccccn3)c2s1 (stereo not shown) [Compound 206]
0.25 to 1,0.25 to 1,,400,400 to 800,,0.25 to 1,≥ 800,> 800,,,,,"CCNC(=O)Nc1nc2cc(-c3cnc(N4CCC(C)(C(=O)O)CC4)nc3)cc(-c3noc(C)n3)c2s1 [Compound 213, 1-[5-[2-(Ethylcarbamoylamino)-7-(5-methyl-1,2,4-oxadiazol-3-yl)-1,3-benzothiazol-5-yl]pyrimidin-2-yl]-4-methyl-piperidine-4-carboxylic acid]"
1 to 16,1 to 16,≥ 800,≥ 800,> 800,> 800,1 to 16,,,,,,,CCNC(=O)Nc1nc2cc(-c3cnc(C(=O)N4CCC(C)(C(=O)O)CC4)nc3)cc(-c3ccccn3)c2s1 [Compound 192]
1 to 16,1 to 16,≥ 800,≥ 800,> 800,> 800,1 to 16,,,,,,,"CCNC(=O)Nc1nc2cc(-c3cnc(N4CCC(CC)(C(=O)O)CC4)nc3)cc(C(N)=O)c2s1 [Compound 193, 1-[5-[7-carbamoyl-2-(ethylcarbamoylamino)-1,3-benzothiazol-5-yl]pyrimidin-2-yl]-4-ethyl-piperidine-4-carboxylic acid]"
1 to 16,1 to 16,,100,12.5 to 400,,1 to 16,≥ 800,> 800,,,,,"CCNC(=O)Nc1nc2cc(-c3cnc(N4CCC(CC)(C(=O)O)CC4)nc3)cc(COC)c2s1 [Compound 203, 4-Ethyl-1-[5-[2-(ethylcarbamoylamino)-7-(methoxymethyl)-1,3-benzothiazol-5-yl]pyrimidin-2-yl]piperidine-4-carboxylic acid]"
,,,,,,,400,400 to 800,C (“C” activity >1.0 μg/mL-16 μg/mL),A (“A” activity ≦0.25 μg/mL),100 μg/mL,A (“A” activity ≦0.25 μg/mL),"CCNC(=O)Nc1nc2cc(-c3cnc(N4CCC(CC)(C(=O)O)CC4)nc3)cc(/C(CC)=N\OC)c2s1 [Compound 223, (E/Z)-4-ethyl-1-(5-(2-(3-ethylureido)-7-(1-(methoxyimino)propyl)benzo[d]thiazol-5-yl)pyrimidin-2-yl)piperidine-4-carboxylic acid]"
1 to 16,0.25 to 1,≥ 800,,,> 800,0.25 to 1,,,,,≧800 μg/mL,,"CCNC(=O)Nc1nc2cc(-c3cnc(N4CCC(CC)(C(=O)O)CC4)nc3)cc(/C(CC)=N\OC)c2s1 [Compound 211, (Z)-4-Ethyl-1-(5-(2-(3-ethylureido)-7-(1-(methoxyimino)propyl)benzo[d]thiazol-5-yl)pyrimidin-2-yl)piperidine-4-carboxylic acid]"
1 to 16,≤ 0.25,≥ 800,≥ 800,> 800,> 800,0.25 to 1,,,,,,,CCNC(=O)Nc1nc2cc(-c3cnc(N4CCC(C)(C(=O)O)CC4)nc3)cc(/C(C)=N/OCC)c2s1 [Compound 96]
1 to 16,≤ 0.25,≥ 800,≥ 800,> 800,> 800,≤ 0.25,,,,,,,"CCNC(=O)Nc1nc2cc(-c3cnc(N4CCC(CC)(C(=O)O)CC4)s3)cc(-c3ccccn3)c2s1 [Compound 221, 4-Ethyl-1-[5-[2-(ethylcarbamoylamino)-7-(2-pyridyl)-1,3-benzothiazol-5-yl]thiazol-2-yl]piperidine-4-carboxylic acid]"
1 to 16,≤ 0.25,≥ 800,≥ 800,> 800,> 800,0.25 to 1,,,,,,,CCNC(=O)Nc1nc2cc(-c3cnc(N4CCC5(CC4)CC(CC)(C(=O)O)C5)nc3)cc(-c3ccccn3)c2s1 [Compound 219]
1 to 16,≤ 0.25,,50,12.5 to 400,,≤ 0.25,400,400 to 800,,,,,CCNC(=O)Nc1nc2cc(-c3cnc(N4CCC(C)(C(=O)O)CC4)nc3OC)cc(-c3ccccn3)c2s1 [Compound 220]
1 to 16,0.25 to 1,,200,12.5 to 400,,0.25 to 1,400,400 to 800,,,,,"CCNC(=O)Nc1nc2cc(-c3csc(N4CCC(CC)(C(=O)O)CC4)n3)cc(-c3ccccn3)c2s1 [Compound 209, 4-Ethyl-1-[4-[2-(ethylcarbamoylamino)-7-(2-pyridyl)-1,3-benzothiazol-5-yl]thiazol-2-yl]piperidine-4-carboxylic acid]"
> 16,0.25 to 1,400,400,400 to 800,400 to 800,0.25 to 1,,,,,,,"CCNC(=O)Nc1nc2cc(-c3cnc4c(c3)OC(C)(C(=O)O)C(=O)N4)cc(-c3ccccn3)c2s1 (stereo not shown) [Compound 190, 7-[2-(ethylcarbamoylamino)-7-(2-pyridyl)-1,3-benzothiazol-5-yl]-2-methyl-3-oxo-4H-pyrido[3,2-b][1,4]oxazine-2-carboxylic acid]"
1 to 16,1 to 16,≥ 800,≥ 800,> 800,> 800,1 to 16,,,,,,,"CCNC(=O)Nc1nc2cc(-c3cnc(N4CCC(C)(C(=O)O)CC4)nc3)c(OC)cc2s1 [Compound 198, 1-[5-[2-(Ethylcarbamoylamino)-6-methoxy-1,3-benzothiazol-5-yl]pyrimidin-2-yl]-4-methyl-piperidine-4-carboxylic acid]"

# Reference: patent US9181234B2, “Antibacterial compounds” (priority 2010, dated 2015)
